# According to patent US8921546B2, “Imidazolothiazole compounds for the treatment of disease” (Ambit Biosciences Corporation, priority 2006, dated 2014):
# Counter-ions that a name gives are not always drawn. Like-named read-outs stand apart in the source and are kept apart here.
# Assays:
# [1] = biological target: T1, CSF1R (Homo sapiens, UniProt P07333); experiment: Binding constant (Kd) measurement, phage-displayed kinase competition binding assay, CSF1R
# T1 construct: made in house
# Description: (§1) Binding Constant (Kd) Measurements for Small-Molecule-Kinase Interactions
# (§2) By testing across a large class of protein kinases, specificity of the kinase inhibitors provided herein is also determined. The components of the assays include various human kinases expressed as fusions to T7 bacteriophage particles and immobilized ligands that bind to the ATP site of the kinases. […] If the test compound binds the kinase, it competes with the immobilized ligand and prevents binding to the solid support. […] The results are read out by quantitating the amount of fusion protein bound to the solid support, which is accomplished by either traditional phage plaque assays or by quantitative PCR (qPCR) using the phage genome as a template.
# [2] = test system: MV4-11 cells; experiment: Cellular proliferation assay (MTS), MV4-11; format: cell-based; conditions: Homo sapiens; MV4-11 cells, 72 hour incubation, MTS; read-out: Cellular Assay MV-proliferation IC50
# Source text: Cellular Proliferation Assay
# Cancer cell viability and proliferation can be evaluated using a tetrazolium salt reduction cell-based assay. In viable cells, this colorimetric assay can measure mitochondrial reduction of a tetrazolium component (MTS) into an […] formazan product.
# This cell line was used to determine the ability of the compounds provided herein to inhibit Flt3 in intact cells. The RS4-11 cell line, which expresses the wild-type (WT) receptor, is also used as a control to verify the test compound's ability to inhibit the FLT3 receptor containing the ITD mutation.
# MV4-11 cells were plated at 10,000 cells per well in DMEM medium with 0.5% serum. RS4-11 cells were plated at 20,000 cells per well in RPMI with 0.5% serum. […] An aliquot from each well of the compound plate was transferred to the plated cells and then incubated @ 37° C. in 5% CO2 (for 3 days for the MV4-11 cells, 2 days for the RS4-11 cells).
# MTS tetrazolium compound (Owen's reagent) was thawed in a H2O bath. 20 μl of MTS tetrazolium was added to each well of optical plate and the cells were incubated @ 37° C. in 5% CO2 for 2 hours.
# [3] = biological target: T2, FLT3 (Homo sapiens, UniProt P36888); experiment: Binding constant (Kd) measurement, phage-displayed kinase competition binding assay, FLT3
# T2 construct: made in house
# T2 sequence (P36888 27-993): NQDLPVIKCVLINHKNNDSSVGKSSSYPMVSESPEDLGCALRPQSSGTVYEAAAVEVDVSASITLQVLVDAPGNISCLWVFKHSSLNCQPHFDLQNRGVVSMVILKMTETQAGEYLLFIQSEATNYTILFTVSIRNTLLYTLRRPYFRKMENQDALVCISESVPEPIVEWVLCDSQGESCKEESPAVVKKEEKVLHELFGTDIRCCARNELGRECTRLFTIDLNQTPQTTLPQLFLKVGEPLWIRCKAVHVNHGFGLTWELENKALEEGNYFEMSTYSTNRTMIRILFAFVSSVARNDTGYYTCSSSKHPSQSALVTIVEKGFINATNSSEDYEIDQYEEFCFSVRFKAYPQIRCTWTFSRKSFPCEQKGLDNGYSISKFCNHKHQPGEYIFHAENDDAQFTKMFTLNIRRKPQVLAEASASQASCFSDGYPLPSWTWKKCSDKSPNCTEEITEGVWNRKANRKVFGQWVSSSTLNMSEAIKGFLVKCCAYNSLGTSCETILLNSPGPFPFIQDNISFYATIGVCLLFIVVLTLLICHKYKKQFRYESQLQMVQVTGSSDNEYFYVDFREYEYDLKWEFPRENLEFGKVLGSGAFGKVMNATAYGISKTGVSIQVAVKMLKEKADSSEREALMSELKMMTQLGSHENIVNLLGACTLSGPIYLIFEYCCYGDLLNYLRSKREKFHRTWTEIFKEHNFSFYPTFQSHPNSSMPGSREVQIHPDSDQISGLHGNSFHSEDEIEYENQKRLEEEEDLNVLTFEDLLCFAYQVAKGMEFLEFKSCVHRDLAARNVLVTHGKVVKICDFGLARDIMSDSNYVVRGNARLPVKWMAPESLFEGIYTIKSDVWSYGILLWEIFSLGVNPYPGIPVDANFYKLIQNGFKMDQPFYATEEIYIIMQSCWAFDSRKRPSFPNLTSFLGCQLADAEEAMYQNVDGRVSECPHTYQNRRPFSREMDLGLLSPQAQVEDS
# Description: as §1, §2
# [4] = biological target: T3, KIT (Homo sapiens, UniProt P10721); experiment: Binding constant (Kd) measurement, phage-displayed kinase competition binding assay, KIT
# T3 construct: made in house
# T3 sequence (P10721 26-976): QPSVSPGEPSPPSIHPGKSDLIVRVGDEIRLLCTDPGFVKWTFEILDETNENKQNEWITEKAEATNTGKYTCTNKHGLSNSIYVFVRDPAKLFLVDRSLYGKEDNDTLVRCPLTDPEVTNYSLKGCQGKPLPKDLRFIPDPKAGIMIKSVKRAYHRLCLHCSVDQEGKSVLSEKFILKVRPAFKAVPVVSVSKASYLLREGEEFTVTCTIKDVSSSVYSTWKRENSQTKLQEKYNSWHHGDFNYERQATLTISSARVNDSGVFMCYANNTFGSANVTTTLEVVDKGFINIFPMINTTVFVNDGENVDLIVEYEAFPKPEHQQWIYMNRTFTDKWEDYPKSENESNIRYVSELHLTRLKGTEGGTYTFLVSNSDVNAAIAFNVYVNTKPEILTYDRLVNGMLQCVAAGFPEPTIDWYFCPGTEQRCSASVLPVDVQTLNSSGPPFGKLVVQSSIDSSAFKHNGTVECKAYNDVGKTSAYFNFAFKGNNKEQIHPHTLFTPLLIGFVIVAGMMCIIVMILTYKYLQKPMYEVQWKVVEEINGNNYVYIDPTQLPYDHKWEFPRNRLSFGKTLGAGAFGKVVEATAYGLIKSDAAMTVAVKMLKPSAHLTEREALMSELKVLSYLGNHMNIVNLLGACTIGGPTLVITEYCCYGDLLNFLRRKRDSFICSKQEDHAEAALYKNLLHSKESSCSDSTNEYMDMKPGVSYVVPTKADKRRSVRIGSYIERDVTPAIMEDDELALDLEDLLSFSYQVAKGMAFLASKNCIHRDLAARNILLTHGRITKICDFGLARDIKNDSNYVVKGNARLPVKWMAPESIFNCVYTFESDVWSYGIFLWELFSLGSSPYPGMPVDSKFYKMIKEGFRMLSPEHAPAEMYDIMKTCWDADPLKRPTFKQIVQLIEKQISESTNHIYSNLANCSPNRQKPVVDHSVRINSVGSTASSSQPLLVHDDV
# Description: as §1, §2
# [5] = read-out: Binding Assay FLT3 Kd
# T1 sequence (P07333 20-972): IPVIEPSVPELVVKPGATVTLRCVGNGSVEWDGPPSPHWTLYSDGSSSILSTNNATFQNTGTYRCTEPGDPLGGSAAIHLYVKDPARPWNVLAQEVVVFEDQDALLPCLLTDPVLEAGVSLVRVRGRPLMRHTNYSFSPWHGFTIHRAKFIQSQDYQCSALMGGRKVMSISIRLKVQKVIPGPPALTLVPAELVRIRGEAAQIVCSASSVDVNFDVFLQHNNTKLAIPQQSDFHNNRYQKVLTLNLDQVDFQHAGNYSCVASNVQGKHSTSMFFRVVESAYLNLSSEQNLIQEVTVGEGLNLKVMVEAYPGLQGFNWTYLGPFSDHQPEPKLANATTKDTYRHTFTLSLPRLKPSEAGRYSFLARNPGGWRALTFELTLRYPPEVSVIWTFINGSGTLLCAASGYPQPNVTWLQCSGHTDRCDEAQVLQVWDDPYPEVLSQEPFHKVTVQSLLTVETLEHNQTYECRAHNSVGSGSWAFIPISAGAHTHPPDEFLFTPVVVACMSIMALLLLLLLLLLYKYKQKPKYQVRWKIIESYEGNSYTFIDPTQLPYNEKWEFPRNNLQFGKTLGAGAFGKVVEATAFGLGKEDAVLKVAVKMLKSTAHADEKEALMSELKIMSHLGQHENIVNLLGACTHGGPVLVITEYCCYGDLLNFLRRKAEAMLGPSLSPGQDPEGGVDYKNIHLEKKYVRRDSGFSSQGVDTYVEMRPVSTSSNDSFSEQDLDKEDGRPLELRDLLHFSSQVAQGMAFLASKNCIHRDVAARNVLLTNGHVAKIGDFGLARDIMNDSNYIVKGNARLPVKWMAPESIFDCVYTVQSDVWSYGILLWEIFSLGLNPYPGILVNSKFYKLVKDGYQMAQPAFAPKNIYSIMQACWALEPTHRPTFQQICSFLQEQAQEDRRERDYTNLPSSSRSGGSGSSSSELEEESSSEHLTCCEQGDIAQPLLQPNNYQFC
"Kd [3, 5]",SMILES,Kd [1],IC50 [2],Kd [3],Kd [4]
–,"CC(C)(C)c1cc(NC(=O)Nc2ccc(-c3cn4c(n3)sc3cc(CC(=O)NCCN5CCCCC5)ccc34)cc2)no1 [Compound C14, 2-(2-{4-[3-(5-tert-butyl-isoxazol-3-yl)-ureido]-phenyl}-benzo[d]imidazo[2,1-b]thiazol-7-yl)-N-(2-piperidin-1-yl-ethyl)-acetamide hydrochloride]",0.01 to 0.1 µM,< 0.01 µM,< 0.01 µM,< 0.01 µM
–,"CCOC(=O)c1ccc2c(c1)sc1nc(-c3ccc(NC(=O)Nc4cc(C(C)(C)C)on4)cc3)cn12 [Compound C26, 2-{4-[3-(5-tert-Butyl-isoxazol-3-yl)-ureido]-phenyl}-imidazo[2,1-b][1,3]benzothiazole-7-carboxylic acid ethyl ester]",0.1 to 1 µM,< 0.01 µM,< 0.01 µM,0.01 to 0.1 µM
–,"CN1CCN(C(=O)c2ccc3c(c2)sc2nc(-c4ccc(NC(=O)Nc5cc(C(C)(C)C)on5)cc4)cn23)CC1 [Compound C25, 1-(5-tert-butyl-isoxazol-3-yl)-3-{4-[7-(4-methyl-piperazine-1-carbonyl)-imidazo[2,1-b][1,3]benzothiazol-2-yl]-phenyl}-urea hydrochloride]",0.01 to 0.1 µM,< 0.01 µM,< 0.01 µM,< 0.01 µM
0.1 to 1 µM,"O=C(CCc1ccc2c(c1)sc1nc(-c3ccc(NC(=O)N4CCOCC4)cc3)cn12)N1CCOCC1 [Compound E1, Morpholine-4-carboxylic acid {4-[7-(3-morpholin-4-yl-3-oxo-propyl)-benzo[d]imidazo[21-b]thiazol-2-yl]-phenyl}amide]",> 1 µM,> 0.1 µM,–,> 1 µM
< 0.01 µM,"CC(C)(C)c1cc(NC(=O)Nc2ccc(-c3cn4c(n3)sc3cc(CCC(=O)O)ccc34)cc2)no1 [Compound C4, 3-{2-[4-({[(5-tert-butylisoxazol-3-yl)amino]carbonyl}amino)phenyl]imidazo[2,1-b][1,3]benzothiazol-7-yl}propanoic acid]",0.01 to 0.1 µM,< 0.01 µM,–,< 0.01 µM
> 1 µM,"Cc1nc(C(F)(F)F)c(C(=O)Nc2ccc(-c3cn4c(n3)sc3cc(OCCN5CCOCC5)ccc34)cc2)s1 [Compound E3, 2-methyl-4-trifluoromethyl-thiazole-5-carboxylic acid {4-[7-(2-morpholin-4-yl-ethoxy)-benzo[d]imidazo[2,1-b]thiazol-2-yl]-phenyl}-amide]",> 1 µM,> 0.1 µM,–,> 1 µM
–,"CC(C)(C)c1cc(NC(=O)Nc2ccc(-c3cn4c(n3)sc3cc(CCN5CCCCC5)ccc34)cc2)no1 [Compound D6, 1-(5-tert-Butyl-isoxazol-3-yl)-3-{4-[7-(2-piperidin-1-yl-ethyl)-imidazo[2,1-b][1,3]benzothiazol-2-yl]-phenyl}urea hydrochloride]",< 0.01 µM,< 0.01 µM,< 0.01 µM,< 0.01 µM
–,"CC(C)(C)c1cc(NC(=O)Nc2ccc(-c3cn4c(n3)sc3cc(CCCN5CCCCC5)ccc34)cc2)no1 [Compound D4, N-(5-tert-Butyl-isoxazol-3-yl)-N′-{4-[7-(3-piperidin-1-yl-propyl)imidazo[2,1-b][1,3]benzothiazol-2-yl]phenyl}urea hydrochloride]",0.01 to 0.1 µM,< 0.01 µM,< 0.01 µM,0.01 to 0.1 µM
< 0.01 µM,"O=C(Nc1ccc(-c2cn3c(n2)sc2cc(OCCN4CCOCC4)ccc23)cc1)Nc1ccc2c(c1)OCCO2 [Compound F1, 1-(2,3-Dihydro-benzo[1,4]dioxin-6-yl)-3-{4-[7-(2-morpholin-4-yl-ethoxy)-benzo[d]imidazo[2,1-b]thiazol-2-yl]-phenyl}-urea]",0.1 to 1 µM,< 0.01 µM,–,< 0.01 µM
–,"CCN1CCN(CCc2ccc3c(c2)sc2nc(-c4ccc(NC(=O)Nc5cc(C(C)(C)C)on5)cc4)cn23)CC1 [Compound D7, 1-(5-tert-Butyl-isoxazol-3-yl)-3-(4-{7-[2-(4-ethyl-piperazin-1-yl)-ethyl]-imidazo[2,1-b][1,3]benzothiazol-2-yl}-phenyl)-urea hydrochloride]",< 0.01 µM,< 0.01 µM,< 0.01 µM,< 0.01 µM
0.01 to 0.1 µM,"Cc1nc(-c2ccc(Cl)cc2)sc1C(=O)Nc1ccc(-c2cn3c(n2)sc2cc(OCCN4CCOCC4)ccc23)cc1 [Compound E4, 2-(4-chloro-phenyl)-4-methyl-thiazole-5-carboxylic acid {4-[7-(2-morpholin-4-yl-ethoxy)-benzo[d]imidazo[2,1-b]thiazol-2-yl]-phenyl}-amide]",0.1 to 1 µM,0.01 to 0.1 µM,–,0.1 to 1 µM
–,"CC(C)(C)c1cc(NC(=O)Nc2ccc(-c3cn4c(n3)sc3cc(CC(=O)NCCN5CCOCC5)ccc34)cc2)no1 [Compound C13, 2-(2-{4-[3-(5-tert-butyl-isoxazol-3-yl)-ureido]-phenyl}-benzo[d]imidazo[2,1-b]thiazol-7-yl)-N-(2-morpholin-4-yl-ethyl)-acetamide hydrochloride]",0.01 to 0.1 µM,< 0.01 µM,< 0.01 µM,< 0.01 µM
–,"CC(C)(C)c1cc(NC(=O)Nc2ccc(-c3cn4c(n3)sc3cc(CN5CCOCC5)ccc34)cc2)no1 [Compound D8, 1-(5-tert-Butyl-isoxazol-3-yl)-3-[4-(7-morpholin-4-ylmethyl-imidazo[2,1-b][1,3]benzothiazol-2-yl)-phenyl]-urea hydrochloride]",0.01 to 0.1 µM,< 0.01 µM,< 0.01 µM,< 0.01 µM
0.1 to 1 µM,"CC(C)(C)c1cc(NC(=O)Nc2cccc(-c3cn4c(n3)sc3cc(OCCN5CCOCC5)ccc34)c2)no1 [Compound B13, N-(5-tert-butyl-isoxazol-3-yl)-N′-{3-[7-(2-morpholin-4-yl-ethoxy)imidazo[2,1-b][1,3]benzothiazol-2-yl]phenyl}urea]",> 1 µM,> 0.1 µM,–,> 1 µM
< 0.01 µM,"CC(C)(C)c1cc(NC(=O)Nc2ccc(-c3cn4c(n3)sc3cc(OCCCN5CCOCC5)ccc34)cc2)no1 [Compound B7, 1-(5-tert-butyl-isoxazol-3-yl)-3-{4-[7-(3-morpholin-4-yl-propoxy)-benzo[d]imidazo[2,1-b]thiazol-2-yl]-phenyl}-urea hydrochloride]",0.01 to 0.1 µM,< 0.01 µM,–,0.01 to 0.1 µM
< 0.01 µM,"CC(C)(C)c1cc(NC(=O)Nc2ccc(-c3cn4c(n3)sc3cc(CCCN5CCOCC5)ccc34)cc2)no1 [Compound D3, 1-(5-tert-Butyl-isoxazol-3-yl)-3-{4-[7-(3-morpholin-4-yl-propyl)-benzo[d]imidazo[2,1-b]thiazol-2-yl]-phenyl}-urea]",0.01 to 0.1 µM,< 0.01 µM,–,< 0.01 µM
–,"CCOC(=O)CCc1ccc2c(c1)sc1nc(-c3ccc(NC(=O)Nc4cc(C(C)(C)C)on4)cc3)cn12 [Compound C3, Ethyl 3-{2-[4-({[(5-tert-Butylisoxazol-3-yl)amino]carbonyl}amino)phenyl]imidazo[2,1-b][1,3]benzothiazol-7-yl}propanoate]",> 1 µM,< 0.01 µM,< 0.01 µM,0.01 to 0.1 µM
